Measurements taken from patent US12479847B2 (DANA-FARBER CANCER INSTITUTE, INC., priority 2019, dated 2025).
Read-outs that look alike come from different tables or passages of the source.

Key:
Experiment in all cases: KINOMEscan (ScanMAX) kinase profiling
Assay type in all cases: binding
[1] = target: T1, panel of 468 kinases (Homo sapiens, UniProt Q12852); settings: DLK; 1 μM; read-out: % control
T1 construct: purchased KINOMEscan (ScanMAX) service
T1 sequence (Q12852 1-859): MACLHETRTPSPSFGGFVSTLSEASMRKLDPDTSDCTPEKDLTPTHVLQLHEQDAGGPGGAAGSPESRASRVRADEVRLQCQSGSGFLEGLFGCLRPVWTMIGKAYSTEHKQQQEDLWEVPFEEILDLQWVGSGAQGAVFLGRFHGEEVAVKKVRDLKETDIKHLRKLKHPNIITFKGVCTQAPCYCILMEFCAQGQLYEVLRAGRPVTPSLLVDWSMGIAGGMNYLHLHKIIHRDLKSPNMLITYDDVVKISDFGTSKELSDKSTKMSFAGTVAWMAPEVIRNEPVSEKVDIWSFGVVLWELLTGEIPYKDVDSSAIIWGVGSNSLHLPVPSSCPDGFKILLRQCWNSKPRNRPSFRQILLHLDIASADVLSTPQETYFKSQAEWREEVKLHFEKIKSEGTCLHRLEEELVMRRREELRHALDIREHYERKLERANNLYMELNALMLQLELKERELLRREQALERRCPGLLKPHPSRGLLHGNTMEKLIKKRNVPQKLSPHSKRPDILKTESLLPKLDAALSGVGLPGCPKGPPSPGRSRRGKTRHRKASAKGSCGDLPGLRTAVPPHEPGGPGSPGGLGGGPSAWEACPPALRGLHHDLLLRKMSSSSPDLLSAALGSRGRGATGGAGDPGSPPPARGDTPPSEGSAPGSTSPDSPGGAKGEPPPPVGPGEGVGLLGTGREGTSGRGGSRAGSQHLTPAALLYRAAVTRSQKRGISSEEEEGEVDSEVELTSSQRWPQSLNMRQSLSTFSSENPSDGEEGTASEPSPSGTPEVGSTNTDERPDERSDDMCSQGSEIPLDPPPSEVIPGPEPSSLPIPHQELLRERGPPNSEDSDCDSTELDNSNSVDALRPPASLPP

[2] = target: T2, panel of 468 kinases (Homo sapiens, UniProt P07333); settings: 1 μM, read-out: % control
T2 construct: purchased KINOMEscan (ScanMAX) service

[3] = target: T3, panel of 468 kinases (Homo sapiens, UniProt Q5VT25); settings: MRCKA; 1 μM; read-out: % control
T3 construct: purchased KINOMEscan (ScanMAX) service

[4] = target: T4, panel of 468 kinases (Homo sapiens, UniProt P49759); settings: CLK1; 1 μM; read-out: % control
T4 construct: purchased KINOMEscan (ScanMAX) service

[5] = target: T5, panel of 468 kinases (Homo sapiens, UniProt O60285); settings: ARKS; 1 μM; read-out: % control
T5 construct: purchased KINOMEscan (ScanMAX) service
T5 sequence (O60285 1-661): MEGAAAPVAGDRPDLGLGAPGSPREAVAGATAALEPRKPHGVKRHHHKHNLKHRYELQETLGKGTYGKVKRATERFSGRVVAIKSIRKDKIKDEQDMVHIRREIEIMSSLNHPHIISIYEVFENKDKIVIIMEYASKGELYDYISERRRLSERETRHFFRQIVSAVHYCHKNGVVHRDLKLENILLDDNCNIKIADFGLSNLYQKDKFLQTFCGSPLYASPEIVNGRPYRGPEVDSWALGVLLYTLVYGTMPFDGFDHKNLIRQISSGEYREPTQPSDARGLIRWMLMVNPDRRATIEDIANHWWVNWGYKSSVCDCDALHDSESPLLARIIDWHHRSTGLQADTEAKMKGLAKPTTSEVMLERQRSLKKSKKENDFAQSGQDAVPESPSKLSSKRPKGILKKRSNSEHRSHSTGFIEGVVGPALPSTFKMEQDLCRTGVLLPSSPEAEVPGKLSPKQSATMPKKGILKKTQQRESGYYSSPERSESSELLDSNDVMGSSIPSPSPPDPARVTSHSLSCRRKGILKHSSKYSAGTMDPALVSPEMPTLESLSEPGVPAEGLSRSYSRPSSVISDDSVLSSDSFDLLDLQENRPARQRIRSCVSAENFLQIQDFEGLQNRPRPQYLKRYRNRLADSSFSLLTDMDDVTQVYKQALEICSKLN

[6] = target: T6, panel of 468 kinases (Homo sapiens, UniProt Q8TDR2); settings: STK35; 1 μM; read-out: % control
T6 construct: purchased KINOMEscan (ScanMAX) service

[7] = target: T7, panel of 468 kinases (Homo sapiens, UniProt Q99640); settings: PKMYT1; 1 μM; read-out: % control
T7 construct: purchased KINOMEscan (ScanMAX) service
T7 sequence (Q99640 1-499): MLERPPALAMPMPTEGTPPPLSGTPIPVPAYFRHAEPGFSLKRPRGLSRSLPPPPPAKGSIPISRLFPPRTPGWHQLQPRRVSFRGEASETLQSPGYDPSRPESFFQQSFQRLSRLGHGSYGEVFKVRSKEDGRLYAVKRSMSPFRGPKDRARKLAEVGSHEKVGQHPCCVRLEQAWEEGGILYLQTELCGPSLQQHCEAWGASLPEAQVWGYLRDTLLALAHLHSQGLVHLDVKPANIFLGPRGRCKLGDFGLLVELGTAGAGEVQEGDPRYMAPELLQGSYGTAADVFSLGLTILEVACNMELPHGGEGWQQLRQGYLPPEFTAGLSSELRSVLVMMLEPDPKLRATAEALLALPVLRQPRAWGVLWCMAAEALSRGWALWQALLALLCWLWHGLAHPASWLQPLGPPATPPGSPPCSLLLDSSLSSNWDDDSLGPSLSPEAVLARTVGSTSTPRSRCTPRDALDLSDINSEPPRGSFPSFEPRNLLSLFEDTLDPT

[8] = test system: panel of 468 kinases; settings: 1 μM

T3 sequence (Q5VT25 whole entry): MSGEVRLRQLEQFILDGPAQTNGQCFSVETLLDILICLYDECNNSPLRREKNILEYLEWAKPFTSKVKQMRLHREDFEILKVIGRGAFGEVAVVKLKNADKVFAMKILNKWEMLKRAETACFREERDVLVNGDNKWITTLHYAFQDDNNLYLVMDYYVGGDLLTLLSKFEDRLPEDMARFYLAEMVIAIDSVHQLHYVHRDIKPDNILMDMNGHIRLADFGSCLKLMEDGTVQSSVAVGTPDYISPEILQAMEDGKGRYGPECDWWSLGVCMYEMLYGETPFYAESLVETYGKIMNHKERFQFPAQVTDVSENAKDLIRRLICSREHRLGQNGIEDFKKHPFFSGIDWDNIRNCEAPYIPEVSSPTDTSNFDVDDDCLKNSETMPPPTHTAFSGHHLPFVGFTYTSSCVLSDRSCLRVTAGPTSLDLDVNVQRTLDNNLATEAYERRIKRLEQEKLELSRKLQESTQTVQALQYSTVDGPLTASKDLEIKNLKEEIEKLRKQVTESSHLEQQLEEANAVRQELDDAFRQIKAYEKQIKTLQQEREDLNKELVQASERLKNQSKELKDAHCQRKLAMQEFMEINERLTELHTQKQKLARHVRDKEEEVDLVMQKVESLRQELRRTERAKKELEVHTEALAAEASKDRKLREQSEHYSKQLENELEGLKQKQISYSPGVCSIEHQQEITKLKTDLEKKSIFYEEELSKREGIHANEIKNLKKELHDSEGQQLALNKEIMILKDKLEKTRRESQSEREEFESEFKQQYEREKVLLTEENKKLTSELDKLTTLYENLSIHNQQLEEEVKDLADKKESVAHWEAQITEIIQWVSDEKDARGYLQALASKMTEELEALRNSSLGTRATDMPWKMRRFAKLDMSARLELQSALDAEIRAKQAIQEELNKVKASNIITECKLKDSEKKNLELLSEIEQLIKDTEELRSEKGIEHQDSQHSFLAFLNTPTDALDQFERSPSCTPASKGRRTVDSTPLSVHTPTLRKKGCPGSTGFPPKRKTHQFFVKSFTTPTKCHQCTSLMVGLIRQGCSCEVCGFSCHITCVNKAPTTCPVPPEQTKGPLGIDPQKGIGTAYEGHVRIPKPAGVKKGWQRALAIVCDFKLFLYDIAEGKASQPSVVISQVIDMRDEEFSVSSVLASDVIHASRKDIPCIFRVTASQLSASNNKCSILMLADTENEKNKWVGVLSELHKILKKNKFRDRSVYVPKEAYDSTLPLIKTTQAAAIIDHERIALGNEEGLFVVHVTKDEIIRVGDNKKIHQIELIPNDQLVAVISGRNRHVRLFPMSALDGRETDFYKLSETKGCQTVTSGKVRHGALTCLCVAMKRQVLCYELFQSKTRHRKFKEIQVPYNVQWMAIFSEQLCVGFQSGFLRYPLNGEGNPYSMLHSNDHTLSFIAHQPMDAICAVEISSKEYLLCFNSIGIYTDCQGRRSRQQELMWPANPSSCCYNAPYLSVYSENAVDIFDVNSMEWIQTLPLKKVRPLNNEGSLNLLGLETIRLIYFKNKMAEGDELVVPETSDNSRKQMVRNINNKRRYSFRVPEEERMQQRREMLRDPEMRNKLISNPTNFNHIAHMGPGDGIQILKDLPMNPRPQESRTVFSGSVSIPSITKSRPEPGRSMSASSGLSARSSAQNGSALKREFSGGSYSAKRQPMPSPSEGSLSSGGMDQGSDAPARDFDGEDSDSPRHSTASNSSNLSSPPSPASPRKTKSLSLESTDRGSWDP
T6 sequence (Q8TDR2 whole entry): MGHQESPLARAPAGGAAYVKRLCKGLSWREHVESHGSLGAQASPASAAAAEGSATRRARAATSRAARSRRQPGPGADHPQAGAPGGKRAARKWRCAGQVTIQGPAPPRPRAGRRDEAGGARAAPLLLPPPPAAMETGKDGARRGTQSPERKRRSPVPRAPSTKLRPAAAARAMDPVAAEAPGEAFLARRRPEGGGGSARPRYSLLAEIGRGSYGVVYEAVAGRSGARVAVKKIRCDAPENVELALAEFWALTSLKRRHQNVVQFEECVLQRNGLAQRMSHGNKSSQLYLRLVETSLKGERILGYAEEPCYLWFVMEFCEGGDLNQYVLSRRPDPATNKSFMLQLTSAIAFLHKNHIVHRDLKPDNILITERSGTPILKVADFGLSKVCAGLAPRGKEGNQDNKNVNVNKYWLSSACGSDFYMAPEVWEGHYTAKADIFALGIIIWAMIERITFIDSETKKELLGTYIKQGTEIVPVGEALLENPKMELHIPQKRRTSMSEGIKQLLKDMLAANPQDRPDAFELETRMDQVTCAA
T2 sequence (P07333 20-972): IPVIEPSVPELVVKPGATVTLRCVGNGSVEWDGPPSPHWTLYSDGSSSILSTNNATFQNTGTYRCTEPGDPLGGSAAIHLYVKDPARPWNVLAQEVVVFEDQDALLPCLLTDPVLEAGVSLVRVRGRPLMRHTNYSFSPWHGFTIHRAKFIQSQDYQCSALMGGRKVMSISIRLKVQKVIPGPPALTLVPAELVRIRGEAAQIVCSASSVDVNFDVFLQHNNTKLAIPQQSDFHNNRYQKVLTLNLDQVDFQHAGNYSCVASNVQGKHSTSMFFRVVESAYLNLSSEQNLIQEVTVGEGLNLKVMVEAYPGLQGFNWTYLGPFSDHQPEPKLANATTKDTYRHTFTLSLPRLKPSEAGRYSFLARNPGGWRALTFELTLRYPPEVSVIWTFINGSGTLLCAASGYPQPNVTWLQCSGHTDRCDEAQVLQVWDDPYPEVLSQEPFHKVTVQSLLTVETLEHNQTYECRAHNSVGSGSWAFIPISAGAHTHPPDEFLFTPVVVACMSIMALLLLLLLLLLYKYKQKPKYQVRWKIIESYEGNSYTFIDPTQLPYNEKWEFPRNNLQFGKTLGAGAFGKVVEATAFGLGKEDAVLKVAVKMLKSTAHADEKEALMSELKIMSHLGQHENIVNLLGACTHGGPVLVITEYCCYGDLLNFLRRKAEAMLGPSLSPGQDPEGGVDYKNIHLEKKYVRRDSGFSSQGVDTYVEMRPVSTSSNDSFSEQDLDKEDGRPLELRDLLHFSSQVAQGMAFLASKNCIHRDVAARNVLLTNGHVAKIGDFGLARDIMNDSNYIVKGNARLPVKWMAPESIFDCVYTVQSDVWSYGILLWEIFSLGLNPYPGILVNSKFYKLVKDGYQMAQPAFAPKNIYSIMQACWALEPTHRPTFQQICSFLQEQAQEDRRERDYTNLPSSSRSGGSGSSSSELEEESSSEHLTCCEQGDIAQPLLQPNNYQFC
T4 sequence (P49759 whole entry): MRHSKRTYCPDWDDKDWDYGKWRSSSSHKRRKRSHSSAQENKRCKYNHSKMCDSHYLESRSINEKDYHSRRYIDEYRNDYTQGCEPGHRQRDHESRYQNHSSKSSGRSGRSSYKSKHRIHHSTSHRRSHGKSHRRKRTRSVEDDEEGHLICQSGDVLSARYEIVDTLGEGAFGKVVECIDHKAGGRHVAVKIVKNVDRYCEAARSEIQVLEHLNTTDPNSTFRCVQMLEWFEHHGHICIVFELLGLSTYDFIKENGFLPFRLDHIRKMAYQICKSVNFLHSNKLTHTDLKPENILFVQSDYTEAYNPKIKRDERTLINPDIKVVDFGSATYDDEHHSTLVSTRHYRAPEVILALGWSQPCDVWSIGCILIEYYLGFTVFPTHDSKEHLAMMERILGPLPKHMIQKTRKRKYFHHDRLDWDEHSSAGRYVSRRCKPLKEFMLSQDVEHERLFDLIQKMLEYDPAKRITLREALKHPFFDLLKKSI

Structure (SMILES) | remaining binding at 1 µM [1] [%] | remaining binding at 1 µM ([2]; CSF1R-autoinhibited) [%] | remaining binding at 1 µM ([2]; CSF1R) [%] | remaining binding at 1 µM [3] [%] | remaining binding at 1 µM [4] [%] | remaining binding at 1 µM [5] [%] | remaining binding at 1 µM [6] [%] | remaining binding at 1 µM [7] [%] | % control ([8]; EGFR(L747-E749del, A750P)) [%] | % control ([8]; EGFR(L747-S752del, P753S)) [%] | % control ([8]; EGFR(L747-T751del,Sins)) [%] | % control ([8]; FLT3(ITD)) [%] | % control ([8]; FLT3(ITD,D835V)) [%] | % control ([8]; FLT3(ITD,F691L)) [%]
CNc1nc(Nc2ccc(C(=O)N3CCC(N4CCOCC4)CC3)c3c2OCO3)nc2[nH]cc(Cl)c12 [Compound 75, (7-((5-chloro-4-(methylamino)-7H-pyrrolo[2,3-d]pyrimidin-2-yl)amino)benzo[d][1,3]dioxol-4-yl)(4-morpholinopiperidin-1-yl)methanone] | 100 | 99 | 98 | 100 | 3.4 | 23 | 100 | 100 | 100 | 87 | 100 | 33 | 2 | 2.8
CNc1nc(Nc2ccc(S(=O)(=O)N3CCC(N4CCOCC4)CC3)cc2OC)nc2[nH]cc(Cl)c12 [Compound 12, 5-chloro-N2-(2-methoxy-4-((4-morpholinopiperidin-1-yl)sulfonyl)phenyl)-N4-methyl-7H-pyrrolo[2,3-d]pyrimidine-2,4-diamine] | 95 | 100 | 100 | 100 | 6.1 | 100 | 100 | 100 | 100 | 95 | 100 | 100 | 61 | 66
CNc1nc(Nc2ccc(P3(=O)CCN(C4CCOCC4)CC3)cc2OC)nc2[nH]cc(Cl)c12 [Compound 77, 4-(4-((5-chloro-4-(methylamino)-7H-pyrrolo[2,3-d]pyrimidin-2-yl)amino)-3-methoxyphenyl)-1-(tetrahydro-2H-pyran-4-yl)-1,4-azaphosphinane 4-oxide] | 100 | 100 | 100 | 92 | 7.1 | 96 | 100 | 100 | 92 | 99 | 100 | 81 | 19 | 40
